Experimental data reported in ChEMBL document CHEMBL1201862, “PubChem BioAssay data set” (2004).
Active and inactive are the calls of the source.

What was measured:
[1] = A549 cell cytotoxicity, dose response, cytotoxicity control, plate reader, cherry-pick, antagonist series (AID 743412); assay type: functional, cell-based
[2] = inhibitors of firefly luciferase expression or activity, dose response, H4 neuroglioma cells, luminescence (AID 1990); assay type: functional, cell-based
[3] = Luminescence Cell-Based Dose Response HTS to Identify Inhibitors of 5'UTR Stem-Loop Driven Prion Protein mRNA Translation in H4 Neuroglioblastoma Cells. [Related pubchem assays: 1827 (Project Summary), 1813 (Primary HTS)]; assay type: functional
[4] = inhibitors of SNCA 5'UTR-driven reporter translation, confirmation, H4 neuroglioma cells, luminescence (AID 1988); assay type: functional, cell-based
[5] = inhibitors of intracellular T. cruzi replication, confirmation, NIH3T3 host cells, beta-gal luminescence (AID 2044); assay type: functional, cell-based;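 further: intracellular parasites grown in NIH/3T3 mouse fibroblasts as host cells; luminescent beta-galactosidase reporter signal from transgenic T. cruzi replicating inside host cells; inhibitors lower the luminescence signal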
[6] = cytotoxicity in HEK-293T cells, dose response, cytotoxicity control for TCR NF-kB inhibitor project, luminescence, T-cell screen hits (AID 489026); assay type: functional, cell-based;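 further: cells exposed to compound about 14 hours before the viability readout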
Aminopeptidase N = target: T1, Aminopeptidase N (Plasmodium falciparum FcB1/Columbia, UniProt O96935); assay: P. falciparum M1AAP inhibitors, biochemical, fluorogenic H-Leu-NHMec substrate, 1536-well (AID 1445); parameters: species or system Plasmodium falciparum 3D7, 3D7
T1 sequence (O96935 whole entry): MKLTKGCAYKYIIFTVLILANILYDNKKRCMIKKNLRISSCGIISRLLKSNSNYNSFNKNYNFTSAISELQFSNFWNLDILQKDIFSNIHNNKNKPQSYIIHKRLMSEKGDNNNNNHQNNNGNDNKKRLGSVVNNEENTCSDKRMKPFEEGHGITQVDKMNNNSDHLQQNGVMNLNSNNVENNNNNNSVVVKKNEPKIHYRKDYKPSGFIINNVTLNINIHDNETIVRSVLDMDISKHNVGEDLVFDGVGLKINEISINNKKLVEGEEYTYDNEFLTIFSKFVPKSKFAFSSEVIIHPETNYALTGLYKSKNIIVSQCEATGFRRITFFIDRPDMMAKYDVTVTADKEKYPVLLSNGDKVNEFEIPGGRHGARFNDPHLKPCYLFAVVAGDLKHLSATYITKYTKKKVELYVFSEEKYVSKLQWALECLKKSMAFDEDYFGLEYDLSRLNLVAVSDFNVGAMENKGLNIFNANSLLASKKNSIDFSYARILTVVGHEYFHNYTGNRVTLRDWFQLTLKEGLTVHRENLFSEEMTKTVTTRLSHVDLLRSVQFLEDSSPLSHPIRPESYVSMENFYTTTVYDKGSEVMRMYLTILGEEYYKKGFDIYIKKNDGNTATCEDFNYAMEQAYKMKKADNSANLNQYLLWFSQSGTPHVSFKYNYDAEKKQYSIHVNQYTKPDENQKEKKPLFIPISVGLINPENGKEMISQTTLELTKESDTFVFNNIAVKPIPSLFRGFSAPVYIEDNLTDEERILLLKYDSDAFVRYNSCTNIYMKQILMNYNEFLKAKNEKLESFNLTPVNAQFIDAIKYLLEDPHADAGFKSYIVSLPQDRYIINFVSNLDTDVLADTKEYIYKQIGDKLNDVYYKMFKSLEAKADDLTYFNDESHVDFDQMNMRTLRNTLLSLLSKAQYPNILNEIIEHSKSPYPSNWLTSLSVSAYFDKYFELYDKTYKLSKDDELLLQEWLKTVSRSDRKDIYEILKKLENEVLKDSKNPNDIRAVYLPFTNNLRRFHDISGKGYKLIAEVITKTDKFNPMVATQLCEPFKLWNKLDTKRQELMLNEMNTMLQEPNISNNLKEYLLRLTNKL

[7] = intracellular Trypanosoma cruzi inhibitors in host cells – cell-based, plate reader, cherry-pick samples, set 3, dose response (AID 651818); assay type: functional;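 further: compounds incubated with infected cells for about four days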
[8] = target: T2, Heat shock factor protein 1 (Mus musculus, UniProt P38532); assay: HSF1 potentiators in luciferase reporter cells, confirmation, cell-based, NIH3T3, luminescence, dose retest (AID 435004); assay type: functional;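 further: stress induced by proteasome inhibitor MG132 added 30 min after compound; luciferase reporter driven by HSF1 response element in NIH3T3 cells; actives raise luminescence as potentiators of the MG132 stress response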
T2 sequence (P38532 whole entry): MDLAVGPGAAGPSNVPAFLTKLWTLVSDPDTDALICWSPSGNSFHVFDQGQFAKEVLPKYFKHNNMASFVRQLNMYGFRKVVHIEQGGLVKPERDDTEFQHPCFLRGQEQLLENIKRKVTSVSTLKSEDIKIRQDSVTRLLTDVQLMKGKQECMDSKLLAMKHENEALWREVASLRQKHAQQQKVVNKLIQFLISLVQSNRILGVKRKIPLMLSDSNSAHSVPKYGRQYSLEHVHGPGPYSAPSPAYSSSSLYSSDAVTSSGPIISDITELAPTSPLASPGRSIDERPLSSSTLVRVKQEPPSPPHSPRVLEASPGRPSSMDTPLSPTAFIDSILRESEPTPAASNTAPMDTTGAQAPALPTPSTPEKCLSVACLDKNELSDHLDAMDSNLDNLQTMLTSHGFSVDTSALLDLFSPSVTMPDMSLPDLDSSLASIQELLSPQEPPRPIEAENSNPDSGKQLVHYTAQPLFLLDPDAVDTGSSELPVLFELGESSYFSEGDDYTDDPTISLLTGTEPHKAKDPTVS

[9] = Shn3 3'UTR reporter inhibitors, dose response, cell-based, Clone20 osteoblasts, firefly luciferase, cherry-picked (AID 624132); assay type: functional;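 further: firefly luciferase luminescence from reporter carrying the Shn3 3'UTR in osteoblasts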
[10] = HepG2 cell cytotoxicity, dose response, cytotoxicity control for Shn3 inhibitor project, CellTiter-Glo, cherry-picked (AID 624134); assay type: functional, cell-based
[11] = control 3'UTR Renilla luciferase suppression, dose response, counter-screen for Shn3 inhibitor project, cell-based, Clone20-Shn3RL, cherry-picked (AID 624133); assay type: functional
cells [12] = assay type: functional, cell-based
cells [13] = assay type: functional, cell-based; remark: listed apart in the source
Paired box protein Pax-8 = Paired box protein Pax-8 (Homo sapiens, UniProt Q06710); assay: inhibitors of PAX8-driven TPO luciferase reporter, dose response, RMG-I cells, cherry-pick (AID 687027); assay type: functional, cell-based;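 further: luciferase reporter driven by Pax8 target thyroperoxidase promoter measured by SteadyGlo luminescence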
Chain of Paired box protein Pax-8 (Q06710 whole entry): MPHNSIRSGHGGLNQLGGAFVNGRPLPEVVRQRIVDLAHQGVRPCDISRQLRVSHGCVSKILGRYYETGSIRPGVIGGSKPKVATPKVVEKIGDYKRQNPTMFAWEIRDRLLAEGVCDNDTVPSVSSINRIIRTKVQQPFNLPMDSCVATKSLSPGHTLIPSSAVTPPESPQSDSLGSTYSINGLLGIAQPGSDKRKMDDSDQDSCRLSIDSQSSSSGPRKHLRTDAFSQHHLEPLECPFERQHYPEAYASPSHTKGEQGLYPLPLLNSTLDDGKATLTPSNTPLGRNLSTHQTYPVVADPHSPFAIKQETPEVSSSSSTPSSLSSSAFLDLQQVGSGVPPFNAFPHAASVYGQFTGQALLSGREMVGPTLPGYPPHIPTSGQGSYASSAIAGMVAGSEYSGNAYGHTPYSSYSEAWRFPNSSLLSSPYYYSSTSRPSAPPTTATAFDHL

[14] = cytotoxicity in OVCAR8 ovarian cancer cells, dose response, PAX8 project, cell-based, plate reader, dry powder samples (AID 743197); assay type: functional; settings: OVCAR-8

## CC[C@H](CO)Oc1cc(NCc2ccc(Cl)c(Cl)c2)c2ncn(C(C)C)c2c1
[1]
  AC50: 30 µM (active)

## Cc1c(C(=O)OCC(C)C)[nH]c2c1C(=O)CC(c1cccs1)C2 (stereo not given)
[2]
  EC50: 8.93 µM (inconclusive)
[3]
  EC50: > 60 µM (not active)
[4]
  EC50: 3.13 µM (active)
[5]
  EC50: 4.91 µM (active)
[6]
  IC50: > 80 µM (inactive)

## O=S(=O)(c1ccc2c(c1)OCCO2)N1CCC(n2nnc3cc(F)ccc32)CC1
Aminopeptidase N
  IC50: 8.18 µM (active)

## C[C@H]1CN([C@@H](C)CO)C(=O)c2cccc(NC(=O)Nc3ccc(F)cc3)c2O[C@@H]1CN(C)Cc1ccc(C(=O)Nc2ccccc2N)cc1
[7]
  AC50: 3.18 µM (active)

## CCCCCn1c(N2CCN(c3cccc(Cl)c3)CC2)nc2c1c(=O)[nH]c(=O)n2C
[8]
  EC50: > 260 µM (inactive)
[9]
  AC50: 21.8 µM (active)
[10]
  AC50: 59.4 µM (active)
[11]
  AC50: 18.3 µM (active)

## O=C(CNC(=O)c1ccccc1Br)N/N=C/c1cc(Br)ccc1O
Aminopeptidase N
  IC50: 26.6 µM (active)
Cells [12]
  EC50: 34.7 µM (active)
Cells [13]
  EC50: > 350 µM (not active)

## Nc1ccccc1Sc1ccc(C(=O)c2ccccc2C(=O)O)cc1[N+](=O)[O-]
Aminopeptidase N
  IC50: 98.9 µM (active)

## C[C@H]1CCCCO[C@H](CN(C)Cc2ccc(Cl)c(Cl)c2)[C@@H](C)CN([C@@H](C)CO)C(=O)c2cc(NC(=O)Nc3ccccc3)ccc2O1
Paired box protein Pax-8
  AC50: 13.1 µM (active)
[14]
  AC50: > 70 µM (inactive)

## O=C(NN=Cc1c(O)ccc2ccccc12)c1ccc2c(c1)OCO2
[6]
  IC50: > 80 µM (inactive)

## COc1ccc(CNC(=O)C2CCN(S(=O)(=O)c3cc(OC)ccc3OC)CC2)cc1
Aminopeptidase N
  IC50: 99 µM (active)
